Measurements: the NIST ThermoML archive (doi:10.1021/je900262t)
± gives the expanded uncertainty stated by the source.

Experiments:
[1] = Liquid; for vapor or sublimation pressure: Ebulliometric method (Recirculating still); for mass density: 303.15 K, 101.33 kPa, Pycnometric method
[2] = excess molar enthalpy (molar enthalpy of mixing); xn = mol fraction of the nth substance listed; details: 298.15 K, 101 kPa, Liquid

O=C1CCCCC1 [cyclohexanone]
vapor or sublimation pressure ([1]; 426.25 K): 95.3 ± 1.1 kPa

CC(=O)CC(C)C [4-methylpentan-2-one]
mass density [1]: 796.33 ± 3.6 kg/m3 | vapor or sublimation pressure ([1]; 386.65 K): 95.3 ± 0.8 kPa

CN1CCCC1=O [N-methylpyrrolidone]
mass density [1]: 1023.4 ± 0.84 kg/m3 | vapor or sublimation pressure ([1]; 473.25 K): 95.3 ± 1.9 kPa

CCC(C)=O [butanone]
mass density [1]: 799.71 ± 3.7 kg/m3 | vapor or sublimation pressure ([1]; 350.85 K): 95.3 ± 2 kPa

CCC(C)=O [butanone] + CN1CCCC1=O
excess molar enthalpy ([2]; x1 = 0.0565): -0.00626 ± 0.000932 kcal/mol | excess molar enthalpy ([2]; x1 = 0.1162): -0.0109 ± 0.00108 kcal/mol | excess molar enthalpy ([2]; x1 = 0.1812): -0.0161 ± 0.00124 kcal/mol | excess molar enthalpy ([2]; x1 = 0.2461): -0.0239 ± 0.00148 kcal/mol | excess molar enthalpy ([2]; x1 = 0.3104): -0.0306 ± 0.0017 kcal/mol | excess molar enthalpy ([2]; x1 = 0.369): -0.0355 ± 0.00184 kcal/mol | excess molar enthalpy ([2]; x1 = 0.4334): -0.0382 ± 0.00194 kcal/mol | excess molar enthalpy ([2]; x1 = 0.4841): -0.04 ± 0.00198 kcal/mol | excess molar enthalpy ([2]; x1 = 0.5458): -0.0377 ± 0.00191 kcal/mol | excess molar enthalpy ([2]; x1 = 0.6781): -0.0277 ± 0.0016 kcal/mol | excess molar enthalpy ([2]; x1 = 0.7324): -0.0206 ± 0.00139 kcal/mol | excess molar enthalpy ([2]; x1 = 0.7935): -0.0148 ± 0.0012 kcal/mol | excess molar enthalpy ([2]; x1 = 0.8525): -0.0117 ± 0.0011 kcal/mol | excess molar enthalpy ([2]; x1 = 0.9112): -0.00593 ± 0.000932 kcal/mol | excess molar enthalpy ([2]; x1 = 0.9609): -0.0048 ± 0.000908 kcal/mol

O=C1CCCCC1 [cyclohexanone] + CN1CCCC1=O
excess molar enthalpy ([2]; x1 = 0.0609): 0.0043 ± 0.000884 kcal/mol | excess molar enthalpy ([2]; x1 = 0.1242): 0.013 ± 0.00115 kcal/mol | excess molar enthalpy ([2]; x1 = 0.1855): 0.0201 ± 0.00136 kcal/mol | excess molar enthalpy ([2]; x1 = 0.2495): 0.0261 ± 0.00155 kcal/mol | excess molar enthalpy ([2]; x1 = 0.3151): 0.0331 ± 0.00177 kcal/mol | excess molar enthalpy ([2]; x1 = 0.3761): 0.0391 ± 0.00196 kcal/mol | excess molar enthalpy ([2]; x1 = 0.4301): 0.0425 ± 0.00206 kcal/mol | excess molar enthalpy ([2]; x1 = 0.4527): 0.0461 ± 0.00217 kcal/mol | excess molar enthalpy ([2]; x1 = 0.5028): 0.0484 ± 0.00227 kcal/mol | excess molar enthalpy ([2]; x1 = 0.5608): 0.0481 ± 0.00225 kcal/mol | excess molar enthalpy ([2]; x1 = 0.6249): 0.0477 ± 0.00225 kcal/mol | excess molar enthalpy ([2]; x1 = 0.6866): 0.04 ± 0.00198 kcal/mol | excess molar enthalpy ([2]; x1 = 0.7491): 0.0317 ± 0.00172 kcal/mol | excess molar enthalpy ([2]; x1 = 0.8134): 0.0237 ± 0.00148 kcal/mol | excess molar enthalpy ([2]; x1 = 0.8794): 0.0158 ± 0.00124 kcal/mol | excess molar enthalpy ([2]; x1 = 0.9445): 0.00798 ± 0.001 kcal/mol

CC(=O)CC(C)C [4-methylpentan-2-one] + CN1CCCC1=O
excess molar enthalpy ([2]; x1 = 0.0508): 0.00545 ± 0.000908 kcal/mol | excess molar enthalpy ([2]; x1 = 0.1052): 0.0119 ± 0.0011 kcal/mol | excess molar enthalpy ([2]; x1 = 0.1632): 0.0183 ± 0.00131 kcal/mol | excess molar enthalpy ([2]; x1 = 0.2234): 0.0242 ± 0.00148 kcal/mol | excess molar enthalpy ([2]; x1 = 0.2858): 0.0304 ± 0.00167 kcal/mol | excess molar enthalpy ([2]; x1 = 0.3815): 0.04 ± 0.00198 kcal/mol | excess molar enthalpy ([2]; x1 = 0.4258): 0.0429 ± 0.00208 kcal/mol | excess molar enthalpy ([2]; x1 = 0.4787): 0.0432 ± 0.00208 kcal/mol | excess molar enthalpy ([2]; x1 = 0.5346): 0.0415 ± 0.00203 kcal/mol | excess molar enthalpy ([2]; x1 = 0.599): 0.0401 ± 0.00198 kcal/mol | excess molar enthalpy ([2]; x1 = 0.6712): 0.0362 ± 0.00186 kcal/mol | excess molar enthalpy ([2]; x1 = 0.7536): 0.0253 ± 0.00153 kcal/mol | excess molar enthalpy ([2]; x1 = 0.8369): 0.0156 ± 0.00122 kcal/mol | excess molar enthalpy ([2]; x1 = 0.9192): 0.00581 ± 0.000932 kcal/mol
